Experimental data: US10696651B2, “Heterocyclic compound” (Takeda Pharmaceutical Company Limited, priority 2016, dated 2020)
Where a name gives a salt, the structure may show the parent alone. Read-outs that look alike come from different tables or passages of the source.

Target: T1, human GCN2 full-length protein (Homo sapiens, UniProt Q9P2K8)
T1 construct: purchased Carna Biosciences, Inc
Assay: GCN2 enzyme inhibition assay (LanthaScreen TR-FRET)
Format: biochemical
Settings: GCN2 enzyme inhibitory activity at compound concentration of 3 μM, read-out: inhibitory rate
Protocol: GCN2 enzyme was preserved at -70° C. and used. The GCN2 enzyme inhibitory activity of the test compound was measured by the LanthaScreenTR-FRET (Time Resolved Fluorescence Resonance Energy Transfer) method (manufactured by ThermoFisher). […] Then, GCN2 enzyme solution diluted with the assay buffer was added by 2 μL to each well. The enzyme solution was not added to a part of the wells to give a control group. After incubation at room temperature for 1 hr, 570 μM ATP solution containing 390 nM […] physiological protein substrate (ThermoFisher) was added by 2 μL. After reaction at room temperature for 1 hr, TR-FRET Dilution Buffer (ThermoFisher) containing 4 nM Terbium-labeled anti-elF2alpha [[…]] antibody (ThermoFisher) dissolved therein was added by 2 μL to each well. After standing at room temperature for 1 hr, time decomposition fluorescence measurement was performed on platereader Envision (manufactured by PerkinElmer).

T1 sequence (Q9P2K8 whole entry): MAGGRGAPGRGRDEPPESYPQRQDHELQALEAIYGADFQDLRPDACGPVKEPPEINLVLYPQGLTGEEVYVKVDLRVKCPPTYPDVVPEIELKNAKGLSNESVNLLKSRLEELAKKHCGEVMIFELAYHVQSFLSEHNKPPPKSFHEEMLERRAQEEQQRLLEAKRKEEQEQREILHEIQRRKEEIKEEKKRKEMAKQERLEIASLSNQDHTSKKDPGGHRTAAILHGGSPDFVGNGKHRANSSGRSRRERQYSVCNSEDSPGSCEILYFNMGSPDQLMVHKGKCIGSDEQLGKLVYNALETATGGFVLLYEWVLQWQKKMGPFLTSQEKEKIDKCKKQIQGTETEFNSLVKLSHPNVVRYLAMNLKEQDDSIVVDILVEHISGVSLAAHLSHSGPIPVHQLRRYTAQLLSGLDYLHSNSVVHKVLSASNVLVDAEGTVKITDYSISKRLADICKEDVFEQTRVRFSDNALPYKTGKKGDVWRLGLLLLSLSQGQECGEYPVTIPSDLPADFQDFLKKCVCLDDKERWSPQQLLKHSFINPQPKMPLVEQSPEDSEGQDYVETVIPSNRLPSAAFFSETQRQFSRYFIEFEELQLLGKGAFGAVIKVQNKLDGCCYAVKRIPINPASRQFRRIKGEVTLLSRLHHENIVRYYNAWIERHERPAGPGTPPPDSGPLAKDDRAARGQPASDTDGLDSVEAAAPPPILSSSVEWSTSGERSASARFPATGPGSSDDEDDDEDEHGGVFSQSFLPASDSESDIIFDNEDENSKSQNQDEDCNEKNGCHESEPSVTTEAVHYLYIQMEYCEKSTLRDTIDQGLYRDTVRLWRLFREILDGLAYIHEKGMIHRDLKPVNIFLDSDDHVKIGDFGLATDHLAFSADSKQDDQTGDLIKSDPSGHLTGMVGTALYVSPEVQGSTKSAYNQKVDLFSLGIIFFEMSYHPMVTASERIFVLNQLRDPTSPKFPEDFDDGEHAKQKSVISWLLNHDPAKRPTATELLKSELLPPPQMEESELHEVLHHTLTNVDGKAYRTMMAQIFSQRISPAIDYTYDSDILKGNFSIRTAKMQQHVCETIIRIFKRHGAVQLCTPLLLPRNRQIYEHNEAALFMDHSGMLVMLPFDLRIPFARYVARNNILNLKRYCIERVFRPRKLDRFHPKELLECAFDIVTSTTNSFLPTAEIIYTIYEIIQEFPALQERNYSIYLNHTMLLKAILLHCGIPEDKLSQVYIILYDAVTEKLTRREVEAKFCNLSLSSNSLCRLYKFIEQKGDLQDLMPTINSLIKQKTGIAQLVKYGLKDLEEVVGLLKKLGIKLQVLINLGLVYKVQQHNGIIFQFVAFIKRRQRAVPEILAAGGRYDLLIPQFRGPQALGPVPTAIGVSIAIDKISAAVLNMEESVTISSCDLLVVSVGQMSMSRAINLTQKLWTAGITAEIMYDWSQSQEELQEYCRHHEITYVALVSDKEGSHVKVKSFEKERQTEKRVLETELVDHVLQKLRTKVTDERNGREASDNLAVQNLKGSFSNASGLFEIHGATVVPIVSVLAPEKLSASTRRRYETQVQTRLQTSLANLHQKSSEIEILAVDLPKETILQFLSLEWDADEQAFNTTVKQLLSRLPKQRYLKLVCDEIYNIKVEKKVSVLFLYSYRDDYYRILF

| Structure (SMILES) | inhibition at 3 µM (Table 3-1) | inhibition at 3 µM (Table 3-2) |
| --- | --- | --- |
| Cc1ncc(Cl)cc1S(=O)(=O)Nc1ccc(F)c(C#Cc2cnc(NC(C)C)nc2)c1F [Example 105, 5-chloro-N-(2,4-difluoro-3-((2-(isopropylamino)pyrimidin-5-yl)ethynyl)phenyl)-2-methylpyridine-3-sulfonamide] | 100% | – |
| Cc1ccc(C)c(S(=O)(=O)Nc2ccc(F)c(C#Cc3cnc4[nH]ncc4c3)c2F)c1 [Example 112, N-(2,4-difluoro-3-(1H-pyrazolo[3,4-b]pyridin-5-ylethynyl)phenyl)-2,5-dimethylbenzenesulfonamide TFA Salt] | 99% | – |
| O=S(=O)(Nc1ccc(F)c(C#Cc2cnc(NCCO)nc2)c1F)c1cc(Cl)ccc1Cl [Example 36, 2,5-dichloro-N-(2,4-difluoro-3-((2-((2-hydroxyethyl)amino)pyrimidin-5-yl)ethynyl)phenyl)benzenesulfonamide TFA Salt] | 99% | – |
| COc1ncc(Cl)cc1S(=O)(=O)Nc1ccc(F)c(C#Cc2cnc(NC(C)C)nc2)c1F [Example 106, 5-chloro-N-(2,4-difluoro-3-((2-(isopropylamino)pyrimidin-5-yl)ethynyl)phenyl)-2-methoxypyridine-3-sulfonamide] | 99% | – |
| Cc1ncc(Cl)cc1S(=O)(=O)Nc1ccc(F)c(C#Cc2cnc(N)nc2)c1F [Example 3, N-(3-((2-aminopyrimidin-5-yl)ethynyl)-2,4-difluorophenyl)-5-chloro-2-methylpyridine-3-sulfonamide] | 99% | – |
| COc1ncc(Cl)cc1S(=O)(=O)Nc1ccc(Cl)c(C#Cc2cnc(N)nc2)c1F [Example 124, N-(3-((2-aminopyrimidin-5-yl)ethynyl)-4-chloro-2-fluorophenyl)-5-chloro-2-methoxypyridine-3-sulfonamide] | 100% | – |
| N#Cc1ccc(Cl)cc1S(=O)(=O)Nc1ccc(F)c(C#Cc2cnc(N)nc2)c1F [Example 29, N-(3-((2-aminopyrimidin-5-yl)ethynyl)-2,4-difluorophenyl)-5-chloro-2-cyanobenzenesulfonamide] | 99% | – |
| Nc1ncc(C#Cc2c(F)ccc(NS(=O)(=O)c3cc(Cl)ccc3OC(F)F)c2F)cn1 [Example 21, N-(3-((2-aminopyrimidin-5-yl)ethynyl)-2,4-difluorophenyl)-5-chloro-2-(difluoromethoxy)benzenesulfonamide] | 99% | – |
| Nc1ncc(C#Cc2c(F)ccc(NS(=O)(=O)c3cc(Cl)ccc3Cl)c2F)c(N)n1 [Example 34, 2,5-dichloro-N-(3-((2,4-diaminopyrimidin-5-yl)ethynyl)-2,4-difluorophenyl)benzenesulfonamide] | 98% | – |
| O=S(=O)(Nc1ccc(F)c(C#Cc2cnc(N[C@H]3CC[C@H](O)CC3)nc2)c1F)c1cc(Cl)ccc1Cl [Example 32, 2,5-dichloro-N-(2,4-difluoro-3-((2-((trans-4-hydroxycyclohexyl)amino)pyrimidin-5-yl)ethynyl)phenyl)benzenesulfonamide TFA Salt] | 99% | – |
| Nc1ncc(C#Cc2c(F)ccc(NS(=O)(=O)c3cc(Cl)cc4c3OCC4)c2F)cn1 [Example 9, N-(3-((2-aminopyrimidin-5-yl)ethynyl)-2,4-difluorophenyl)-5-chloro-2,3-dihydro-1-benzofuran-7-sulfonamide] | 99% | – |
| Nc1ncc(C#Cc2c(F)ccc(NS(=O)(=O)c3cc(Cl)ccc3OC(F)(F)F)c2F)cn1 [Example 12, N-(3-((2-aminopyrimidin-5-yl)ethynyl)-2,4-difluorophenyl)-5-chloro-2-(trifluoromethoxy)benzenesulfonamide] | 99% | – |
| O=S(=O)(Nc1ccc(F)c(C#Cc2cnc(NC3CC3)nc2)c1F)c1cc(Cl)ccc1Cl [Example 11, 2,5-dichloro-N-(3-((2-(cyclopropylamino)pyrimidin-5-yl)ethynyl)-2,4-difluorophenyl)benzenesulfonamide TFA Salt] | 99% | – |
| Cc1cc(C)cc(S(=O)(=O)Nc2ccc(F)c(C#Cc3cnc4[nH]ncc4c3)c2F)c1 [Example 111, N-(2,4-difluoro-3-(1H-pyrazolo[3,4-b]pyridin-5-ylethynyl)phenyl)-3,5-dimethylbenzenesulfonamide TFA Salt] | 97% | – |
| Nc1ncc(C#Cc2c(F)ccc(NS(=O)(=O)c3cc(Cl)ccc3C(F)(F)F)c2F)cn1 [Example 6, N-(3-((2-aminopyrimidin-5-yl)ethynyl)-2,4-difluorophenyl)-5-chloro-2-(trifluoromethyl)benzenesulfonamide] | 99% | – |
| O=S(=O)(Nc1ccc(F)c(C#Cc2cnc(NCCCO)nc2)c1F)c1cc(Cl)ccc1Cl [Example 28, 2,5-dichloro-N-(2,4-difluoro-3-((2-((3-hydroxypropyl)amino)pyrimidin-5-yl)ethynyl)phenyl)benzenesulfonamide TFA Salt] | 99% | – |
| Nc1ncc(C#Cc2c(F)ccc(NS(=O)(=O)c3cc(C(F)(F)F)ccc3Cl)c2F)cn1 [Example 35, N-(3-((2-aminopyrimidin-5-yl)ethynyl)-2,4-difluorophenyl)-2-chloro-5-(trifluoromethyl)benzenesulfonamide] | 95% | – |
| Nc1ncc(C#Cc2c(F)ccc(NS(=O)(=O)c3cc(Cl)cc(Cl)c3)c2F)cn1 [Example 27, N-(3-((2-aminopyrimidin-5-yl)ethynyl)-2,4-difluorophenyl)-3,5-dichlorobenzenesulfonamide] | 95% | – |
| COc1ncc(Cl)cc1S(=O)(=O)Nc1ccc(F)c(C#Cc2cnc(N)nn2)c1F [Example 109, N-(3-((3-amino-1,2,4-triazin-6-yl)ethynyl)-2,4-difluorophenyl)-5-chloro-2-methoxypyridine-3-sulfonamide] | 99% | – |
| CCNc1ncc(C#Cc2c(F)ccc(NS(=O)(=O)c3cc(Cl)ccc3Cl)c2F)cn1 [Example 30, 2,5-dichloro-N-(3-((2-(ethylamino)pyrimidin-5-yl)ethynyl)-2,4-difluorophenyl)benzenesulfonamide TFA Salt] | 98% | – |
| COc1ncc(Cl)cc1S(=O)(=O)Nc1cccc(C#Cc2cnc(N)nc2)c1Cl [Example 126, N-(3-((2-aminopyrimidin-5-yl)ethynyl)-2-chlorophenyl)-5-chloro-2-methoxypyridine-3-sulfonamide] | 100% | – |
| COc1ncc(Cl)cc1S(=O)(=O)Nc1ccc(F)c(C#Cc2cnc(N)c(C)n2)c1F [Example 110, N-(3-((5-amino-6-methylpyrazin-2-yl)ethynyl)-2,4-difluorophenyl)-5-chloro-2-methoxypyridine-3-sulfonamide] | 100% | – |
| COc1ncc(Cl)cc1S(=O)(=O)Nc1ccc(F)c(C#Cc2cnc(NC(C)(C)CO)nc2)c1F [Example 108, 5-chloro-N-(2,4-difluoro-3-((2-((1-hydroxy-2-methylpropan-2-yl)amino)pyrimidin-5-yl)ethynyl)phenyl)-2-methoxypyridine-3-sulfonamide] | 99% | – |
| COc1ncc(Cl)cc1S(=O)(=O)Nc1cccc(C#Cc2cnc(N)nc2)c1F [Example 123, N-(3-((2-aminopyrimidin-5-yl)ethynyl)-2-fluorophenyl)-5-chloro-2-methoxypyridine-3-sulfonamide] | 100% | – |
| Nc1ncc(C#Cc2c(F)ccc(NS(=O)(=O)c3cc(Cl)cnc3C(F)(F)F)c2F)cn1 [Example 136, N-(3-((2-aminopyrimidin-5-yl)ethynyl)-2,4-difluorophenyl)-5-chloro-2-(trifluoromethyl)pyridine-3-sulfonamide] | – | 99% |
| COc1c(CO)cc(Cl)cc1S(=O)(=O)Nc1ccc(F)c(C#Cc2cnc(N)c(C)n2)c1F [Example 131, N-(3-((5-amino-6-methylpyrazin-2-yl)ethynyl)-2,4-difluorophenyl)-5-chloro-3-(hydroxymethyl)-2-methoxybenzenesulfonamide] | – | 99% |
| COc1ncc(Cl)cc1S(=O)(=O)Nc1ccc(F)c(C#Cc2cnc(N)nc2)c1Cl [Example 125, N-(3-((2-aminopyrimidin-5-yl)ethynyl)-2-chloro-4-fluorophenyl)-5-chloro-2-methoxypyridine-3-sulfonamide] | 100% | – |
| C[C@H](CO)Nc1ncc(C#Cc2c(F)ccc(NS(=O)(=O)c3cc(Cl)ccc3Cl)c2F)cn1 [Example 22, 2,5-dichloro-N-(2,4-difluoro-3-((2-(((2R)-1-hydroxypropan-2-yl)amino)pyrimidin-5-yl)ethynyl)phenyl)benzenesulfonamide TFA Salt] | 99% | – |
| COc1ncc(Cl)cc1S(=O)(=O)Nc1ccc(F)c(C#Cc2cnc(NCC(C)(C)O)nc2)c1F [Example 107, 5-chloro-N-(2,4-difluoro-3-((2-((2-hydroxy-2-methylpropyl)amino)pyrimidin-5-yl)ethynyl)phenyl)-2-methoxypyridine-3-sulfonamide] | 99% | – |
| O=S(=O)(Nc1ccc(F)c(C#Cc2cnc(NC3CCOC3)nc2)c1F)c1cc(Cl)ccc1Cl (stereo not drawn) [Example 16, 2,5-dichloro-N-(2,4-difluoro-3-((2-(tetrahydrofuran-3-ylamino)pyrimidin-5-yl)ethynyl)phenyl)benzenesulfonamide TFA Salt] | 100% | – |
